# Test results from patent US8859511B2, “Proliferation inhibitor of Helicobacter pylori bacteria” (The Noguchi Institute, priority 2008, dated 2014).
# Tests used:
# [1] = test system: H. pylori bacteria (ATCC 43504); assay: H. pylori bacteria-proliferation inhibitory effect under in vitro (OD values at 600 nm); assay type: cell-based, Helicobacter pylori
# [2] = test system: H. pylori bacteria (ATCC 43504 strain); assay: Count of viable H. pylori bacteria (colony count) from stomach of orally infected meriones unguiculatus; assay type: in vivo
# Source text: Antibacterial activities of GlcNAc derivatives towards H. pylori bacteria were investigated under in vivo by an experimental system using meriones unguiclatus infected orally with H. pylori bacteria.
# Type strain of H. pylori bacteria (ATCC 43504 strain) was used as strain for infection. After stock strain thereof was recovered in Brain Heart Infusion (BHI) culture medium, which is available from Nissui Pharmaceutical Co., Ltd., including 10% horse serum, which is available from Dainippon Sumitomo Pharma Co., Ltd., and then cultured in the culture medium at 37° C. under microaerophilic condition using a microaerophilic incubator for 3 days. Finally the concentration thereof was adjusted to approximately 5×10^6 colony-forming-unit/mL (CFU/mL).
# The meriones unguiculatus were fasted from 24 hours earlier of infection of Helicobacter pylori bacteria to 4 hours later of the infection thereof.
# Approximately 1.0 mL of the liquid culture medium including Helicobacter pylori bacteria was administrated orally as 5×10^6 CFU/individual-animal to the fasted meriones unguiculatus. The day of infection was defined as initial day (i.e. Day 0)
# Specimens prepared by using GlcNAcl-beta-O-Et of N-acetyl-glucosamine derivative according to following concentration of each group were administered.
# Number of animal: 10 animals per one group
# Means for administration: dietary administration
# Stomach was respectively isolated from thus 10 animals of each group, and added into a centrifuging tube containing 5 mL of a phosphate buffer solution (PBS) to be homogenized with Polytron Homogenizer. 0.1 mL of the obtained homogenate was spread on Poamedia Vi Helico-S agar medium which is available from Eiken Chemical Co., Ltd. And then the bacterium were cultured at 37° C. under microaerophilic condition as same as above-mentioned incubation for culture. The formed violet colonies were counted.
# They were carried out by above-mentioned statistical procedure.
# [3] = Body weight and general remarks of symptoms of infected meriones unguiculatus under dietary administration
# Experimental: 4 weeks-old male meriones unguiculatus (SPF: specific-pathogen free), which were purchased from Kyudo Co., Ltd. (Br. Yoshitomi), were preliminarily reared for 23 days and then used for the experiments. The meriones unguiculatus were reared temperature of 24 plus or minus 3° C. and under relative humidity of 55 plus or minus 15% in all room for infected animals with conditions of lighting from a.m. 7 to p.m. 7 and ventilating 18 times per hour during preliminarily reared period and experiment period. 2 or 3 meriones unguiculatus were reared in a cage. All meriones unguiculates could freely get purified water as drinkable water and powdery feed MF as dry feed which is available from Oriental Yeast Co., Ltd. Incidentally the meriones unguiculatus were marked by application of dyestuff of picric acid solution for individual discrimination.
# Amount of administration: 0.3% of the specimen blended with the powdery feed
# The day of infection was defined as day 0. At 1st, 3rd, 6th, 10th, 13th, 17th, 20th, 24th, and 26th days, body weight was measured by a weight scale respectively.
# Daily variance of the general remarks of symptoms thereof was observed.
# As regards to body weight and count of colonies, average plus/minus standard error thereof in all groups was respectively calculated. […]
# [4] = assay type: physicochemical
# Experimental: […]-beta-O-Et in a defined constant amount of the H. pylori bacteria-containing culture medium, which was cultured for 3 days, was measured by high performance liquid chromatography. A concentration of […]-beta-O-Et therein was determined by conversion using a calibration curve which was beforehand prepared from various definite concentrations of standard […]-beta-O-Et and peak areas of high pressure liquid chromatogram thereof. According to the determination, 6% of […]-beta-O-Et in the defined constant amount of the H. pylori bacteria-containing culture medium was reduced in comparison with initial concentration thereof. Consequently it was obvious that 6% of […]-beta-O-Et in the H. pylori bacteria-containing culture medium was decomposed to GlcNAc and ethanol (EtOH).
smiles,measurement,setting,value
"CC(=O)N[C@H]1C(O)O[C@H](CO)[C@@H](O)[C@@H]1O (stereo partly drawn) [GlcNAc, N-acetyl-glucosamine, reference compound]",proliferation inhibitory effect,"[1]; concentration as high as 50 mM, FIG. 2",does not show any proliferation inhibitory effect
CCO[C@H]1O[C@H](CO)[C@@H](O)[C@H](O)[C@H]1NC(C)=O [GlcNAcl-alpha-O-Et],statistical significant difference of the count of viable bacteria vs control group,"[2]; 300 mg/kg/day, FIG. 8",not observed at all
same,count of H. pylori bacteria reduced in comparison with the control group,"[2]; 1000 mg/kg/day, FIG. 8",⅓
same,statistical significant difference of the count of viable bacteria vs control group,"[2]; 1000 mg/kg/day, FIG. 8",eventually observed
same,effect on inhibiting the proliferation of H. pylori bacteria under in vitro,"[1]; in comparison with GlcNAcl-beta-O-Et, FIG. 6",did not almost indicate the effect
"CCO[C@@H]1O[C@H](CO)[C@@H](O)[C@H](O)[C@H]1NC(C)=O [GlcNAcl-beta-O-Et, Ethoxy-2-acetamide-2-deoxy-N-acetyl-beta-D-glucosaminide]",statistical significant difference of the body weight increase vs control group,"[3]; 300 mg/kg/day dietary administration (0.3% in feed), to day 26, FIG. 4",not observed
same,abnormal general remarks of symptoms,"[3]; 300 mg/kg/day dietary administration, daily observation",could not be observed
same,stability in the culture medium,[4],stable
same,reduction of concentration in comparison with initial concentration (decomposed to GlcNAc and ethanol),"[4]; H. pylori bacteria-containing culture medium cultured for 3 days, HPLC",6%
same,count of H. pylori bacteria reduced in comparison with the control group,"[2]; 300 mg/kg/day dietary, all individuals, FIG. 5(a)",½ to ⅓
same,count of H. pylori bacteria reduced in comparison with the control group,"[2]; 300 mg/kg/day dietary, outliers rejected by Smirnov-Grubbs test, FIG. 5(b)",⅙
same,proliferation ability of H. pylori bacteria,[1]; culture medium containing not less than 5 mM,not more than 50%
same,proliferation ability of H. pylori bacteria,[1]; culture medium containing not less than 20 mM,not more than 5%
same,H. pylori bacteria proliferation inhibited,"[1]; not less than 25 or 50 mM, cultivation 96 hours, vs negative control, FIG. 1",not less than 50%
"CCO [ethanol, reference compound]",proliferation inhibitory effect,"[1]; 5 volume % (856 mM), FIG. 3",shows proliferation inhibitory effect barely
